Consider two compounds from patent US9073880B2, “2-(2-phenylethenyl) 1,3-benzodiazepine derivatives useful for the treatment of cancer” (Yissum Research Development Company of the Hebrew …, priority 2010, dated 2015).

For this experiment, the system named is human colon carcinoma HCT15 cells. In words: Cell proliferation, HCT15 (Example 4). The experiment is classed as cell-based. The conditions noted are these: HCT-15, HCT15, colon cancer, compound in 2-hydroxypropyl-β-cyclodextrin. As for the experimental part:
Human ovary cancer A2780 cells lines were seeded at a density of 5000 cells/well, human melanoma A375 cells were plated at a density of 2,500 cells/well, human colon carcinoma HCT15 cells were plated at a density of 3,000 cells/well, human prostate carcinoma PC3 cells were plated at a density of 1,500 cells/well, human breast carcinoma MCF7 cells were plated at a density of 5,000 cells/well, human breast carcinoma MDA MB 468 cells were plated at a density of 6,000 cells/well, human myeloma U266, RPMI8226 and CAG cells were plated at a density of 10,000 cells/well. All cells were plated in 96-well plates in 90 μl growth medium containing 10% FCS, 100 units/ml penicillin and 100 μg/ml streptomycin. Compound 3 was added a day later in […] of 1% DMSO in DDW to obtain final concentrations of 0, 0.1, 0.3, 1, 3, and 10 μM. The final concentration of DMSO (0.1% DMSO) was kept constant in all samples. […] The optical density values were read at 630 nm in ELISA plate reader. Non-adhered cells were exposed to WST-1 reagent for 5 hours following 72 hours treatment with the inhibitors, and optical density values were read at 630 nm in ELISA plate reader. The data was analyzed in Microsoft Excel, using the vehicle control as 100% proliferation. […]

Broadly, the IC50 is the concentration needed to halve the response being measured. Read a low IC50 as greater potency in that assay. In turn, `O=c1c(O)cc2cnc(/C=C/c3ccc(O)c(O)c3Br)sc-2c1O` [Compound 5] came in with an IC50 of 900 nM. The figure for `O=c1c(O)cc2cnc(/C=C/c3cc(O)c(O)c(Br)c3)sc-2c1O` [Compound 3] is 700 nM.
